Measurements reported in patent publication US20210116454A1, “METHODS FOR TREATING A HEMATOLOGICAL CANCER AND THE USE OF COMPANION BIOMARKERS FOR 2-(2,6-DIOXOPIPERIDIN-3-YL)-4-((2-FLUORO-4-((3-MORPHOLINOAZETIDIN-1-YL)METHYL)BENZYL)AMINO)ISOINDOLINE-1,3-DIONE” (CELGENE CORPORATION, priority 2019, published 2021).
pEC50, pIC50: −log10 of the molar value. Where two headings read alike, the source gives them in different places.

Columns and labels:
Type in all cases: cell-based
SU-DHL-2 = experiment: 5-day viable cell number and apoptosis (7-AAD exclusion/Annexin V flow cytometry); conditions: SU-DHL-2 cells, 5 days
Excerpt: (§1) The DLBCL panel includes seven cell lines classified as activated B-cell (ABC) subtype, thirteen cell lines classified as the germinal center B-cell (GCB) subtype, and three cell lines classified as primary mediastinal B-cell lymphoma (PMBL). […] The translocation of MYC, BCL6, or BCL2 to an IG locus usually leads to high levels of mRNA and protein due to the active transcription driven by a constitutively active IG promoter. […] Expressions of CRBN protein and known substrates, Ikaros, Aiolos, and ZFP91 were also evaluated (FIG. 1, panels B and C).
(§2) The panel of cell lines were treated with increasing doses of compounds for five days, at which time the number of viable cells was measured and the amount of apoptosis was determined by 7-AAD exclusion and Annexin V staining using flow cytometry.

SU-DHL-8 = experiment: as above
Excerpt: as §1, §2

TMD8 = experiment: as above; conditions: TMD8 cells, 5 days
Excerpt: as §1, §2

U2940 = experiment: as above; conditions: U2940 cells, 5 days
Excerpt: as §1, §2

WSU-DLCL2 = experiment: as above
Excerpt: as §1, §2

Oci-Ly10 DoxoR = experiment: Viable cells/apoptosis in doxorubicin-resistant and matching parental lines
Procedure: (§3) The activity of Compound 1 was also evaluated in cell lines with acquired resistance to doxorubicin (Table 4). Doxorubicin-resistant cell lines (DoxoR) were generated by culturing the parental cell lines in vitro with increasing concentrations of doxorubicin for a long period of time (˜9 to 18 months) until they were able to grow in the presence of a relatively high concentration of doxorubicin (1 μM). Matching parental (M-Parent) cells were generated by maintaining the parental cells in culture without treatment for the same amount of time (˜9 to 18 months). The growth-inhibitory effect of doxorubicin on parental cells and the corresponding resistant cells was evaluated by measuring the number of viable cells and extent of apoptosis by 7-AAD exclusion and Annexin V staining using flow cytometry.
(§4) The effects of Compound 1 on the viability of doxorubicin-resistant versus parental cell lines was determined (FIG. 2; Table 5).

Oci-Ly10 M-Parental = experiment: as above; conditions: Oci-Ly 10 M-Parental
Procedure: as §3, §4

SU-DHL-4 DoxoR = experiment: as above
Procedure: as §3, §4

SU-DHL-4 M-Parental = experiment: as above
Procedure: as §3, §4

U2932 DoxoR = experiment: as above
Procedure: as §3, §4

U2932 M-Parental = experiment: as above
Procedure: as §3, §4

WSU-DLCL2 DoxoR = experiment: as above
Procedure: as §3, §4

WSU-DLCL2 M-Parental = experiment: as above
Procedure: as §3, §4

[1] = Homo sapiens, 120 h, SU-DHL-8 cells, 5 days
[2] = Homo sapiens, WSUDLCL2, 120 h, WSU-DLCL2 cells, 5 days
[3] = Homo sapiens, 120 h, 5 days, read-out: IC50
[4] = Homo sapiens, WSUDLCL2, 120 h, 5 days, read-out: IC50

## O=C1CC[C@H](N2C(=O)c3cccc(NCc4ccc(CN5CC(N6CCOCC6)C5)cc4F)c3C2=O)C(=O)N1 [Compound 1, (S)-2-(2,6-dioxopiperidin-3-yl)-4-((2-fluoro-4-((3-morpholinoazetidin-1-yl)methyl)benzyl)amino)isoindoline-1,3-dione]
SU-DHL-2
  % Viable Cells Emax: 1.264%
  % Viable Cells Sensitivity: High (highly sensitive to Compound 1 with less than 6% viable cells remaining (Emax) after treatment)
  Apoptosis AUC: 745
  Apoptosis Sensitivity: High
SU-DHL-8; [1]
  pEC50: 6.29
  Emax: 70.5%
SU-DHL-8; Homo sapiens, 120 h, SU-DHL-8 cells, 5 days, read-out: % Viable Cells IC50
  pIC50: 6.60
SU-DHL-8; Homo sapiens, SU-DHL-8 cells (Table 3), read-out: IC50
  pIC50: 4.27
SU-DHL-8; SU-DHL-8 cells, 5 days
  % Viable Cells AUC: 54.43
  % Viable Cells Emax: 2.508%
  % Viable Cells Sensitivity: High (highly sensitive to Compound 1 with less than 6% viable cells remaining (Emax) after treatment)
  Apoptosis AUC: 652.5
  Apoptosis Sensitivity: High
TMD8; Homo sapiens, 120 h
  pEC50: 8.35
  Emax: 83.2%
TMD8; Homo sapiens, 120 h, read-out: % Viable Cells IC50
  pIC50: 8.52
TMD8
  % Viable Cells AUC: 3.911
  % Viable Cells Emax: 1.365%
  % Viable Cells Sensitivity: High (highly sensitive to Compound 1 with less than 6% viable cells remaining (Emax) after treatment)
  Apoptosis AUC: 826.8
  Apoptosis Sensitivity: High
U2940; Homo sapiens, U-2940, 120 h
  pEC50: 7.17
  Emax: 29%
U2940; Homo sapiens, U-2940, 120 h, read-out: % Viable Cells IC50
  pIC50: 7.46
U2940
  % Viable Cells AUC: 289.1
  % Viable Cells Emax: 29.24%
  % Viable Cells Sensitivity: Intermediate (intermediate sensitivity with 15% to 55% cell viability)
  Apoptosis AUC: 267.4
  Apoptosis Sensitivity: Intermediate
WSU-DLCL2; [2]
  pEC50: 7.11
  Emax: 47.8%
WSU-DLCL2; Homo sapiens, WSUDLCL2, 120 h, WSU-DLCL2 cells, 5 days, read-out: % Viable Cells IC50
  pIC50: 7.70
WSU-DLCL2; Homo sapiens, WSUDLCL2, WSU-DLCL2 cells (Table 3), read-out: IC50
  pIC50: 3.76
WSU-DLCL2; WSU-DLCL2 cells, 5 days
  % Viable Cells AUC: 173.8
  % Viable Cells Emax: 1.36%
  % Viable Cells Sensitivity: High (highly sensitive to Compound 1 with less than 6% viable cells remaining (Emax) after treatment)
  Apoptosis AUC: 464.5
  Apoptosis Sensitivity: High
Oci-Ly10 DoxoR; Homo sapiens, OCI-Ly10, 120 h, Oci-Ly 10 DoxoR, 5 days, read-out: IC50
  pIC50: 6.52
Oci-Ly10 DoxoR; OCI-Ly10 doxorubicin-resistant vs parental
  greater sensitivity of resistant cells compared to parental cells: approximately 20 fold
Oci-Ly10 DoxoR; Oci-Ly 10 DoxoR, relative to DMSO
  Emax (% viable cells remaining): 22%
Oci-Ly10 M-Parental; Homo sapiens, OCI-Ly10, 120 h, 5 days, read-out: IC50
  pIC50: 5.22
Oci-Ly10 M-Parental; relative to DMSO
  Emax (% viable cells remaining): 47%
SU-DHL-4 DoxoR; Homo sapiens, 120 h, SU-DHL-4 DoxoR, 5 days, read-out: IC50
  pIC50: 7.00
SU-DHL-4 DoxoR; SU-DHL-4 DoxoR, relative to DMSO
  Emax (% viable cells remaining): 8%
SU-DHL-4 DoxoR; SU-DHL-4 doxorubicin-resistant vs parental
  greater sensitivity in the doxorubicin-resistant cell line: > 100 fold
SU-DHL-4 M-Parental; [3]
  pIC50: < 5.00
SU-DHL-4 M-Parental; relative to DMSO
  Emax (% viable cells remaining): 74%
U2932 DoxoR; Homo sapiens, 120 h, U2932 DoxoR, 5 days, read-out: IC50
  pIC50: 5.82
U2932 DoxoR; U2932 DoxoR, relative to DMSO
  Emax (% viable cells remaining): 31%
U2932 DoxoR; U2932 doxorubicin-resistant vs M-parental
  lower sensitivity in doxorubicin-resistant cells: 20 fold
U2932 M-Parental; [3]
  pIC50: 7.22
U2932 M-Parental; relative to DMSO
  Emax (% viable cells remaining): 19%
WSU-DLCL2 DoxoR; [4]
  pIC50: 7.00
WSU-DLCL2 DoxoR; relative to DMSO
  Emax (% viable cells remaining): 9%
WSU-DLCL2 M-Parental; [4]
  pIC50: 8.00
WSU-DLCL2 M-Parental; relative to DMSO
  Emax (% viable cells remaining): 23%
